{
  "source": "patent US20090247766A1",
  "about": "“Substituted Nitrogen Heterocycles and Synthesis and Uses Thereof” (University of Southern California, priority 2008, published 2009)",
  "assay_type_in_all_cases": "cell-based",
  "key": {"HCT116 p53 +/+": {"system": "HCT116 p53 +/+", "assay": "MTT cytotoxicity assay, HCT116 p53 +/+", "conditions": "replicate values", "protocol": "(§1) IC50 was determined using an MTT assay."}, "HCT116 p53 −/−": {"system": "HCT116 p53 −/−", "assay": "MTT cytotoxicity assay, HCT116 p53 -/-", "conditions": "replicate values", "protocol": "as §1"}, "MDA-MB 435": {"system": "MDA-MB 435", "assay": "MTT cytotoxicity assay, MDA-MB 435", "protocol": "For example, compound 1-[5-chloro-2-(4-methoxy-phenyl)-3-trifluoromethyl-indol-1-yl]-ethanone, prepared under Example 2 of the present application, has shown potential anticancer activity against several cancer cell lines.\nas §1"}, "H29": {"system": "H29", "assay": "MTT cytotoxicity assay, H29", "conditions": "replicate values", "protocol": "as §1"}, "Skov-3": {"system": "Skov-3", "assay": "MTT cytotoxicity assay, Skov-3", "conditions": "replicate values", "protocol": "as §1"}, "MCF7": {"system": "MCF7", "assay": "MTT cytotoxicity assay, MCF7", "conditions": "replicate values", "protocol": "as §1"}, "[1]": {"conditions": "Homo sapiens, HCT-116, MTT assay"}},
  "note": "Several values for one entry are separate records, joined by “and”; a condition that tells them apart may be missing. Equal values may be shown once.",
  "data": [
    {"smiles": "COc1ccc(-c2c(C(F)(F)F)c3cc(Cl)ccc3n2C(C)=O)cc1", "note": "[Example 2, 1-[5-chloro-2-(4-methoxy-phenyl)-3-trifluoromethyl-indol-1-yl]-ethanone]", "values": [
      {"measurement": "IC50", "setting": "HCT116 p53 +/+; [1]", "value": 14.5, "unit": "µg/mL"},
      {"measurement": "IC50 HCT116 p53 +/+", "setting": "HCT116 p53 +/+; MTT assay", "value": 15.4, "unit": "µg/mL"},
      {"measurement": "IC50", "setting": "HCT116 p53 −/−; [1]", "value": 13.2, "unit": "µg/mL"},
      {"measurement": "IC50 HCT116 p53 −/−", "setting": "HCT116 p53 −/−; MTT assay", "value": "8.4 µg/mL and 9.4 µg/mL and 9.2 µg/mL"},
      {"measurement": "cytotoxicity against the MDA MB-435 cell line", "setting": "MDA-MB 435; 10 micromolar (μM) concentration, MTT assay", "value": 80.8, "unit": "%"},
      {"measurement": "IC50", "setting": "MDA-MB 435; Homo sapiens, MDA-MB-435, MTT assay, replicate values", "value": 11.1, "unit": "µg/mL"},
      {"measurement": "IC50 MDA-MB 435", "setting": "MDA-MB 435; MTT assay, replicate values", "value": "8.5 µg/mL and 7.4 µg/mL and 9.6 µg/mL"},
      {"measurement": "IC50", "setting": "H29", "value": 9.6, "unit": "µg/mL"},
      {"measurement": "IC50 H29", "setting": "H29", "value": 9.8, "unit": "µg/mL"},
      {"measurement": "IC50", "setting": "Skov-3; Homo sapiens, SK-OV-3, MTT assay", "value": 15.8, "unit": "µg/mL"},
      {"measurement": "IC50 Skov-3", "setting": "Skov-3; MTT assay", "value": 17.2, "unit": "µg/mL"},
      {"measurement": "IC50", "setting": "MCF7; Homo sapiens, MCF7, MTT assay", "value": 18.8, "unit": "µg/mL"},
      {"measurement": "IC50 MCF7", "setting": "MCF7; MTT assay", "value": 18, "unit": "µg/mL"}
    ]}
  ]
}
